In patent EP1105728B1, “MODULATING MULTIPLE LINEAGE KINASE PROTEINS” (CEPHALON, INC., priority 1998, dated 2000):
Where two headings read alike, the source gives them in different places. Starred links: 1 amine or outer side, 2 acyl side, 3 side chain; linkers in the order of their positions; H or OH if unused. Positions of bridges follow the written chain, without caps; N, C: chain ends. Non-standard residues stand in square brackets, D forms with d. Residues, ends and D or L forms follow the SMILES beside them. Chains are numbered I, II in the order given. Actinocin(9to1) = Cc1c2oc3c(C)ccc(C(=O)[*:1])c3nc-2c(C(=O)[*:2])c(N)c1=O; NMeV = CN[C@H](C(=O)O)C(C)C; Sar = CNCC(=O)O

Tests used:
TNF-α = assay: Induction of TNF-α by LPS in THP-1 cells (ELISA); type: cell-based; details: for TNF-α in the medium: inhibitor 30 min prior to LPS, medium collected 3 hr after LPS; for IC50: Homo sapiens, THP-1, LPS 2 µg/ml, serum-free medium, read-out: THP-1 Cells TNF-α IC50
Protocol: THP-1 cells were grown in RPMI 1640 medium supplemented with 10% fetal bovine serum. LPS (E.coli serotype 0111.B4, TCA extracted) was purchased from Sigma and dissolved in PBS. ELISA kits for assaying IL-1 and TNF-α were purchased from Boerhinger-Mannheim and assays on THP-1 culture medium were performed as directed by the manufacturer. Standard curves according to directions were obtained with each assay.
Experiments were performed in 12 well culture plates with either 1 or 2 ml of THP-1 cells at 4 X 10^5 cells/ml. IL-1 and TNF-α were induced by the addition of LPS to the culture medium and the medium collected at various times thereafter for cytokine assay. Cells were removed by centrifugation and the supernatants frozen at -70°C until assay. To minimize costs experiments were performed in duplicate cultures and the duplicate supernatants were pooled after centrifugation. Each pooled supernatant was assayed in duplicate. Stock solutions of indolo- and fused pyrrolocarbazoles in 100% DMSO were diluted to the desired concentrations in either medium containing 10% fetal bovine serum or in medium containing 0.5 mg/ml BSA. Unless otherwise stated, compounds were added to the THP-1 cells 1 hr prior to the addition of LPS.

MKK4 = assay: MPTP model: phosphorylated MKK4 in the substantia nigra (immunoblot, ELISA); type: in vivo, mice; details: pretreatment; Compound III-3 1 mg/kg (Fig. 22c)
Protocol: MPTP was administered at a dose (40 mg/kg) that produces loss of striatal dopaminergic terminals and cell bodies in the substantia nigra. Tyrosine hydroxylase was used as a marker for dopamenergic nerve terminals in the substantia nigra. […] Since Compound III-3 is a known inhibitor of MLK3, activation of a downstream substrate of MLK3 was measured in MPTP- treated mice. Levels of phosphorylated MKK4 were measured using a phospho-MKK4 specific antibody (New England Biolabs, Beverly, MA) that recognizes the monophosphorylated form of MKK4 by either immunoblot (Fig. 22b) or ELISA (Fig. 22c). MPTP administration elevated levels of phosphorylated MKK4 in the substantia nigra by up to 5 fold over control levels (Fig. 22b). Peak elevations occurred 4 hrs after administration ofMPTP and coincided with peak CNS levels of MPP^+.

MLK-3 = molecular target: T1, MLK-3 (Homo sapiens, UniProt Q16584); assay: JNK activity (immunoprecipitation/kinase assay) in Cos7 cells overexpressing MLK-3 and HA-JNK1; type: cell-based
T1 construct: A full length cDNA of human MLK-3, MLK-2, or mouse DLK; expressed in transfected cells; host or cells: Cos7
Protocol: Cos7 cells were plated at 80% confluency and transfected with 2 ug each of cDNA constructs using lipofectamine as recommended by the provider (Gibco BRL, Gaithersburg, MD). A full length cDNA of human MLK-3, MLK-2, or mouse DLK or a partial human MLK-1 as described above, and a full length Hemagluttinin A-tagged human JNK1, kindly provided by J. Silvio Gutkind (NIH, Bethesda, MD), were subcloned into the pcDNA3 vector (Invitrogen, San Diego, CA). […] JNK activity from the lysate was assayed by an immunoprecipitation/kinase assay as described below.
Lysate from Cos 7 cells was measured for protein concentration using the Micro BCA kit from Pierce (Rockford, IL) and equal amounts of protein were immunoprecipitated with the HA antibody for 1 hr at 4°C. Immunoprecipitates were pelleted by centrifugation in a microfuge centrifuge for 20 sec, resuspended in Triton buffer, washed by centrifugation 2 more times, followed by a final wash in Kinase buffer (20 mM Hepes pH 7.4,20 mM MgCl2, 2 mM dithiothreitol, 0.1 mM sodium vanadate). The immunoprecipitate was resuspended in kinase buffer containing 1 µM ATP and 5 µCi [γ-^32P]ATP and substrate (1 µg/sample of AP-1 ) and incubated for 15 min at 30°C. […] Samples were heated to 80°C for 5 min and loaded onto 10% SDS-polyacrylamide gels. Proteins were separated by electrophoresis. The gel was dried and quantitation of radioactivity in the AP-1 substrate was performed on a Molecular Dynamics Phosphorimager (Sunnyvale, Ca.).
To determine whether inhibition of the JNK pathway regulated by these kinases correlated with neurotrophic compounds, we evaluated the effect of compounds on JNK activity in Cos7 cells overexpressing HA-JNK and MLK3. After a 48 hr transfection period, the cells were incubated with compounds at 500 nM for 2hr followed by cellular lysis. Lysate was immunoprecipitated and kinase activity measured as previously described. […]

JNK = JNK activity immunoprecipitated from THP-1 cells; type: cell-based; details: Homo sapiens, read-out: THP-1 Cells JNK % inh. 500 nM
Protocol: Assays for JNK activity were performed after immunoprecipitating the JNK protein from an extract of lysed THP-1 cells. Pelleted THP-1 cells were lysed on ice for 15 min in 500 µl of Frac buffer (10 mM Tris-Hcl, pH 7.5,50 mM NaCl, 30 µM sodium pyrophosphate, 1 mg/ml BSA, 1% Triton-X-100). The extract was centrifuged for 10 min at 14K and 5 µl of JNK antibody (Santa Cruz) was added to the supernatant. The extract was rotated for 60 min at 4°C, 75 µl of washed protein A Sepharose (20% w/v in Frac) added and the extract rotated another 30 min to bind the antibody complex to the protein A Sepharose. The protein A Sepharose was washed twice with Frac buffer, once with 20 mM Hepes, pH 7.6, 20 mM MgCl2, 2 mM DTT, then incubated for 15 min at 30° C in 30 µl of kinase buffer (20 mM hepes, 20 mM MgCl2, 2 MM DTT, 1 µg recombinant c-jun, and 2 µM ATP-γ-^32P, 2 µCi. The reaction was terminated by the addition of 10 µl of 4X SDS gel loading buffer, heated for 3 min at 80° C, and the proteins were analyzed on a 10% SDS gel. The gel was dried, exposed to a Phosphorimager plate, and the radioactive bands were analyzed on a Phosphorimager.

DLK = molecular target: T2, DLK (Mus musculus, UniProt Q60700); assay: JNK activity (immunoprecipitation/kinase assay) in Cos7 cells overexpressing DLK and HA-JNK1; type: cell-based; details: COS-7, 500 nM for 2 hr; replicate values in one cell; read-out: Cos-7 Cells DLK % JNK Inhib. @ 500nM
T2 construct: A full length cDNA of human MLK-3, MLK-2, or mouse DLK; expressed in transfected cells; host or cells: Cos7
T2 sequence (Q60700 1-888): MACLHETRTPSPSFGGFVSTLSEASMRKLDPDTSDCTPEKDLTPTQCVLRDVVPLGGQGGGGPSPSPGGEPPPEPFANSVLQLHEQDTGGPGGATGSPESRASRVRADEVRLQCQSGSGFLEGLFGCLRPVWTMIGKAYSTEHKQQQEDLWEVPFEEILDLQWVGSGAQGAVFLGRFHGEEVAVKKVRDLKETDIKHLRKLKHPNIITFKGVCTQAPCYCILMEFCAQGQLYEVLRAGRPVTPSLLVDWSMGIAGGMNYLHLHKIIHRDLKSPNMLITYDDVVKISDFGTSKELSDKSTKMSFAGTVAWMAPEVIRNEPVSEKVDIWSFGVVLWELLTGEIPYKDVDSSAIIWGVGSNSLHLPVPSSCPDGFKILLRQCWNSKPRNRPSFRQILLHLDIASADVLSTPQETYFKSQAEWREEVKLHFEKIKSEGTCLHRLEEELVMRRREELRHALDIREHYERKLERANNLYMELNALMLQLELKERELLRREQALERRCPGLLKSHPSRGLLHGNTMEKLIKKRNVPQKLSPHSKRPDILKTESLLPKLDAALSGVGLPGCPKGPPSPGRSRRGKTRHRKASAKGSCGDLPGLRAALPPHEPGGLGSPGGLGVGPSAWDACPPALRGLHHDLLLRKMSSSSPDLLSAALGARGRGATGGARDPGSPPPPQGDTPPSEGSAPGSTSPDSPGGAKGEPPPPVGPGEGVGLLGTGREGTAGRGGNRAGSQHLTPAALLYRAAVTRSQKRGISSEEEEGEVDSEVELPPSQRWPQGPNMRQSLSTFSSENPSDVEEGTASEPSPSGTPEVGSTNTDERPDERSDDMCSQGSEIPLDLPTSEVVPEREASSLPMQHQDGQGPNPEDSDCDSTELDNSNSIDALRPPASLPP
Protocol: Cos7 cells were plated at 80% confluency and transfected with 2 ug each of cDNA constructs using lipofectamine as recommended by the provider (Gibco BRL, Gaithersburg, MD). A full length cDNA of human MLK-3, MLK-2, or mouse DLK or a partial human MLK-1 as described above, and a full length Hemagluttinin A-tagged human JNK1, kindly provided by J. Silvio Gutkind (NIH, Bethesda, MD), were subcloned into the pcDNA3 vector (Invitrogen, San Diego, CA). After a 48 hr transfection, the cells were treated with 0.025% DMSO or 500 nM of the indicated compounds for 2 hr followed by lysis in 0.4 ml Triton buffer (1% Triton X-100, 50 mM sodium chloride, 10 mM Tris (pH 7.6), 0.1 % bovine serum albumin, 30 uM sodium pyrophosphate, 50 mM sodium fluoride, 20 ug/ml aprotinin, 1 mM phenylmethylsulfonylfluoride, 1 mM sodium vanadate). JNK activity from the lysate was assayed by an immunoprecipitation/kinase assay as described below.
Lysate from Cos 7 cells was measured for protein concentration using the Micro BCA kit from Pierce (Rockford, IL) and equal amounts of protein were immunoprecipitated with the HA antibody for 1 hr at 4°C. […] The gel was dried and quantitation of radioactivity in the AP-1 substrate was performed on a Molecular Dynamics Phosphorimager (Sunnyvale, Ca.). […]

[1] = COS-7, 500 nM for 2hr, control is JNK activity in the presence of DMSO, read-out: % Inhibition of JNK Activity (average) MLK3 in Cos7 cells
[2] = COS-7, read-out: Overexpressed MLK3 in Cos 7 Cells JNK % inh. 500 nM

T1 sequence (Q16584 whole entry): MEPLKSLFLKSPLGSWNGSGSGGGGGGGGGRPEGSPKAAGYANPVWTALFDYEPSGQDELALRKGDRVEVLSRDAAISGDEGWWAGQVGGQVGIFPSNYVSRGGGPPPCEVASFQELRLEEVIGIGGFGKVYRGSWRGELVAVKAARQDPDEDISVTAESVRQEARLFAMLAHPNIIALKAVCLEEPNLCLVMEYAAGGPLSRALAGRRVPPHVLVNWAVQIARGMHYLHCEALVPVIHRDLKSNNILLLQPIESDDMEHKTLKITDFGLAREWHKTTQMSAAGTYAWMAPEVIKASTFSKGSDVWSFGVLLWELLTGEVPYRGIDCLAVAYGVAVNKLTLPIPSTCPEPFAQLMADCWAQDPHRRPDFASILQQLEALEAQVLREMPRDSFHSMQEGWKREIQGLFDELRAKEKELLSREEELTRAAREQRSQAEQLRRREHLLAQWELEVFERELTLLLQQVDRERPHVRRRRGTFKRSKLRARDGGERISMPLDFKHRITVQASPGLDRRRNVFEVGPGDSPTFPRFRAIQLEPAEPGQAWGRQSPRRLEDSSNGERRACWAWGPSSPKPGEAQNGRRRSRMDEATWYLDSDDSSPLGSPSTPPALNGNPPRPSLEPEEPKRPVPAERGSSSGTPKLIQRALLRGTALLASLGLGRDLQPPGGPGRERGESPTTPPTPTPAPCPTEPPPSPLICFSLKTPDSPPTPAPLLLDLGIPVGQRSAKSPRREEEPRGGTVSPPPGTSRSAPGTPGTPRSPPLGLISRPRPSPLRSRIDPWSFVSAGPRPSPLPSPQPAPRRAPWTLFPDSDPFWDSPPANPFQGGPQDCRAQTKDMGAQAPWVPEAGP

## Cc1c2oc3c(C)ccc(C(=O)N[C@@H]4C(=O)N[C@H](C(C)C)C(=O)N5CCC[C@H]5C(=O)N(C)CC(=O)N(C)[C@@H](C(C)C)C(=O)O[C@@H]4C)c3nc-2c(C(=O)N[C@@H]2C(=O)N[C@H](C(C)C)C(=O)N3CCC[C@H]3C(=O)N(C)CC(=O)N(C)[C@@H](C(C)C)C(=O)O[C@@H]2C)c(N)c1=O [Actinomycin D, reference compound] (I: T[dV]P[Sar][NMeV] / II: T[dV]P[Sar][NMeV]; ester I:1-I:C, II:1-II:C; linker I:N-II:N via Actinocin(9to1))
TNF-α
  TNF-α in the medium: no TNF-α was found

## C#CCN(C)[C@H](C)Cc1ccccc1 [Compound 1-deprenyl, 1-deprenyl, reference compound]
MKK4
  MPTP-mediated MKK4 phosphorylation: attenuated

## CCNC(=O)Nc1ccc2c(c1)c1c3c(c4c5cc(CCc6ccccn6)ccc5n5c4c1n2C1CC(O)(C(=O)OC)C5(C)O1)CNC3=O (centres unmarked) [III-1]
TNF-α
  IC50: 49.5 nM
MLK-3; [1]
  inhibition at 0.5 µM: 84%
MLK-3; [2]
  inhibition at 0.5 µM: 83.8%
JNK
  inhibition at 0.5 µM: 93.5%

## CCOCOCc1ccc2c(c1)c1c3c(c4c5cc(COCOCC)ccc5n5c4c1n2C1CC(O)(C(=O)OC)C5(C)O1)CNC3=O (centres unmarked) [III-2]
MLK-3; [1]
  inhibition at 0.5 µM: 96%

## CCCCCOC(=O)C1(O)CC2OC1(C)n1c3ccccc3c3c4c(c5c6ccccc6n2c5c31)C(=O)NC4 (centres unmarked) [III-4]
TNF-α
  IC50: 462 nM
MLK-3; [1]
  inhibition at 0.5 µM: 66%
MLK-3; [2]
  inhibition at 0.5 µM: 66%
JNK
  inhibition at 0.5 µM: 81%

## COC(=O)C1(O)CC2OC1(C)n1c3ccccc3c3c4c(c5c6ccccc6n2c5c31)C(=O)NC4 (centres unmarked) [III-9]
MLK-3; [1]
  inhibition at 0.5 µM: 98.5%

## COC(=O)C1(O)CC2OC1(C)n1c3ccc(CCSC)cc3c3c4c(c5c6cc(CCSC)ccc6n2c5c31)C(=O)NC4 (centres unmarked) [III-10]
TNF-α
  IC50: 4300 nM
MLK-3; [1]
  inhibition at 0.5 µM: 78%
MLK-3; [2]
  inhibition at 0.5 µM: 78%
JNK
  inhibition at 0.5 µM: 48%

## COC(=O)C1(OC)CC2OC1(C)n1c3ccccc3c3c4c(c5c6ccccc6n2c5c31)C(=O)NC4 (centres unmarked) [III-11]
TNF-α
  IC50: 686 nM
MLK-3; COS-7, 500 nM, read-out: Overexpressed MLK3 in Cos 7 Cells JNK % inh. 500 nM
  inhibition at 0.5 µM: 92.5%
MLK-3; [1]
  inhibition at 0.5 µM: 92.5%
JNK
  inhibition at 0.5 µM: 51%

## COC(=O)C1(O)CC2OC1(C)n1c3ccccc3c3c4c(c5c6ccccc6n2c5c31)C(=O)NC4 (centres unmarked) [III^1]
DLK
  inhibition at 0.5 µM: 63%
MLK-3; COS-7, 500 nM for 2 hr, replicate values in one cell, read-out: Cos-7 Cells MLK-3 % JNK Inhib. @ 500nM
  inhibition at 0.5 µM: 99%

## C[C@@H]1C[C@@H]([C@H](O)CC2CC(=O)NC(=O)C2)C(=O)[C@@H](C)C1 [cycloheximide, reference compound]
TNF-α
  TNF-α in the medium: no TNF-α was found
